{"source": "patent US10758534B2", "about": "(Vertex Pharmaceuticals Incorporated, priority 2014, dated 2020)", "biological_target": "T1, F508del (Homo sapiens, UniProt P13569, DEL508-508)", "T1 construct": "expressed in transfected cells", "T1 sequence (P13569 with tags, fused parts or gaps DEL508-508)": "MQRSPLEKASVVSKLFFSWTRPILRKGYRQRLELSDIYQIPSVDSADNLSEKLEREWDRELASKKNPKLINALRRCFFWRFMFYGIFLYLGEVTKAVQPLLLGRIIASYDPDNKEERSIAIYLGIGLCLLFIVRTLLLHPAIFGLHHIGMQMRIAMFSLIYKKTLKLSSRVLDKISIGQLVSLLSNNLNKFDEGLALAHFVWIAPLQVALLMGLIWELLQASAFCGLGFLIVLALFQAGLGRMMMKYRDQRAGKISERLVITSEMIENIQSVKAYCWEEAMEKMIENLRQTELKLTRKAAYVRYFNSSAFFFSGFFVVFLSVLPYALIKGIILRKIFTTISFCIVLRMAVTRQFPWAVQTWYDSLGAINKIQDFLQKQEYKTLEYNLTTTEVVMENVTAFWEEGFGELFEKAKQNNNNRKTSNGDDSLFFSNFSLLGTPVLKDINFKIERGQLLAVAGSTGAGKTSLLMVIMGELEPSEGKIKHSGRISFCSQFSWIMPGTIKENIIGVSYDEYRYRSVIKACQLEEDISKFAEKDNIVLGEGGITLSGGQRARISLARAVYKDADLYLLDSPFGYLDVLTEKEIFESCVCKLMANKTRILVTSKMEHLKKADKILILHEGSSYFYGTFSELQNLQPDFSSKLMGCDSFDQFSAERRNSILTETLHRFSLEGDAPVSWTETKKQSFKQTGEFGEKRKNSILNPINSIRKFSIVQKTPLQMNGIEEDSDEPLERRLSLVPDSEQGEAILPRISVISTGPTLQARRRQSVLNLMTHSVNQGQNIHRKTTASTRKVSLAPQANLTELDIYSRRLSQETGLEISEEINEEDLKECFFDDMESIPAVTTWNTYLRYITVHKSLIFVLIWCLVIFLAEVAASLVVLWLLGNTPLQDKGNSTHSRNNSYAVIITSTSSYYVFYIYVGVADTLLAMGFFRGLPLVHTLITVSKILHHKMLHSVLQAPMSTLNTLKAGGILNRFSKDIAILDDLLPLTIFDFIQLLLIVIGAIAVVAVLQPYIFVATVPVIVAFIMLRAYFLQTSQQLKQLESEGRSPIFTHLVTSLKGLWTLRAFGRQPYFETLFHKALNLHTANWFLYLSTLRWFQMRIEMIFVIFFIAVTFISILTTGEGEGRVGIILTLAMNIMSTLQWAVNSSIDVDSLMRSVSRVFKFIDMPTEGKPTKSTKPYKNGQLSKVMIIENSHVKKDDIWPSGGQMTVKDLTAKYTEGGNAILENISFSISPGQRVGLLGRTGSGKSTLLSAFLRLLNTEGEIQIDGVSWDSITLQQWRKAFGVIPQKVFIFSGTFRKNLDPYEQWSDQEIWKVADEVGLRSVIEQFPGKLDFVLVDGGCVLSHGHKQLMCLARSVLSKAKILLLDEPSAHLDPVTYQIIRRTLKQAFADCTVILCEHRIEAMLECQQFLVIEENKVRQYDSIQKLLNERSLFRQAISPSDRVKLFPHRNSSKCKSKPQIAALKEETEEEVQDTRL", "experiment": "Protocol 1: membrane potential optical assay (FLIPR III, voltage sensing dye), identification of potentiator compounds", "assay_type": "cell-based", "settings": "Table 3, compounds of Table 1", "method_in_brief": "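NIH 3T3 fibroblasts stably expressing F508del were cultured at 27° C for 24 hrs for temperature correction, then treated with compounds or DMSO and loaded with a voltage-sensing redistribution dye. Forskolin added with a Cl⁻ gradient activated the channel; membrane-potential fluorescence on FLIPR III reported increased gating.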"}
{"smiles": "Cc1ccc(-c2nc3c(cc2C(=O)NS(=O)(=O)c2ccc(N)cc2)CCCC3(C)C)cc1", "note": "[Compound 1307, N-(4-aminophenyl)sulfonyl-8,8-dimethyl-2-(p-tolyl)-6,7-dihydro-5H-quinoline-3-carboxamide]", "values": [{"measurement": "EC30", "result": "++ (“++” means between 3 uM and 10 uM)"}]}
{"smiles": "CC(C)COc1cc(F)cc(-c2ccc(C(=O)NS(=O)(=O)c3cccc(=O)[nH]3)c(N3CC(C)CC3(C)C)n2)c1", "note": "(stereo not drawn) [Compound 1308, 6-(3-fluoro-5-isobutoxy-phenyl)-N-[(6-oxo-1H-pyridin-2-yl)sulfonyl]-2-(2,2,4-trimethylpyrrolidin-1-yl)pyridine-3-carboxamide]", "values": [{"measurement": "EC30", "result": "+++ (“+++” means <3 uM)"}]}
{"smiles": "CC(C)COc1cc(F)cc(-c2ccc(C(=O)NS(=O)(=O)c3cccc(O)c3)c(N3CCC(C)(C)CC3)n2)c1", "note": "[Compound 1309, 2-(4,4-dimethyl-1-piperidyl)-6-(3-fluoro-5-isobutoxy-phenyl)-N-(3-hydroxyphenyl)sulfonyl-pyridine-3-carboxamide]", "values": [{"measurement": "EC30", "result": "+++ (“+++” means <3 uM)"}]}
{"smiles": "Cc1cc(C)c(Oc2nc(C3(C)CC3)ccc2C(=O)NS(=O)(=O)c2cccc(N)n2)c(C)c1", "note": "[Compound 1310, N-[(6-amino-2-pyridyl)sulfonyl]-6-(1-methylcyclopropyl)-2-(2,4,6-trimethylphenoxy)pyridine-3-carboxamide]", "values": [{"measurement": "EC30", "result": "+++ (“+++” means <3 uM)"}]}
{"smiles": "Cc1cc(C)c(Oc2nc(C(C)(C)C)ccc2C(=O)NS(=O)(=O)c2c(C)cc[nH]c2=O)c(C)c1", "note": "[Compound 1311, 6-tert-butyl-N-[(4-methyl-2-oxo-1H-pyridin-3-yl)sulfonyl]-2-(2,4,6-trimethylphenoxy)pyridine-3-carboxamide]", "values": [{"measurement": "EC30", "result": "+++ (“+++” means <3 uM)"}]}
{"smiles": "CCn1cc(-c2ccc(C(=O)NS(=O)(=O)c3cccc(N)n3)c(Oc3c(C)cc(C)cc3C)n2)cn1", "note": "[Compound 1312, N-[(6-amino-2-pyridyl)sulfonyl]-6-(1-ethylpyrazol-4-yl)-2-(2,4,6-trimethylphenoxy)pyridine-3-carboxamide]", "values": [{"measurement": "EC30", "result": "++ (“++” means between 3 uM and 10 uM)"}]}
{"smiles": "CC(C)COc1cc(F)cc(-c2ccc(C(=O)NS(=O)(=O)c3cccc(N)n3)c(N3CCCC4CCCC43)n2)c1", "note": "(stereo not drawn) [Compound 1313, 2-(2,3,4,4a,5,6,7,7a-octahydrocyclopenta[b]pyridin-1-yl)-N-[(6-amino-2-pyridyl)sulfonyl]-6-(3-fluoro-5-isobutoxy-phenyl)pyridine-3-carboxamide]", "values": [{"measurement": "EC30", "result": "+++ (“+++” means <3 uM)"}]}
{"smiles": "CC(Cc1ccccc1)Oc1nc(C(C)(C)C)ccc1C(=O)NS(=O)(=O)c1cccc(N)n1", "note": "(stereo not drawn) [Compound 1314, N-[(6-amino-2-pyridyl)sulfonyl]-6-tert-butyl-2-(1-methyl-2-phenyl-ethoxy)pyridine-3-carboxamide]", "values": [{"measurement": "EC30", "result": "+++ (“+++” means <3 uM)"}]}
{"smiles": "CC(C)COc1cc(F)cc(-c2ccc(C(=O)NS(=O)(=O)c3ccn[nH]3)c(N3CCC(c4ccccc4)CC3)n2)c1", "note": "[Compound 1315, 6-(3-fluoro-5-isobutoxy-phenyl)-2-(4-phenyl-1-piperidyl)-N-(1H-pyrazol-5-ylsulfonyl)pyridine-3-carboxamide]", "values": [{"measurement": "EC30", "result": "+++ (“+++” means <3 uM)"}]}
{"smiles": "CC(C)Oc1ccc(-c2ccc(C(=O)NS(=O)(=O)c3cccnc3N)c(N3[C@H](C)CC[C@@H]3C)n2)cn1", "note": "[Compound 1316, N-[(2-amino-3-pyridyl)sulfonyl]-2-[(2S,5R)-2,5-dimethylpyrrolidin-1-yl]-6-(6-isopropoxy-3-pyridyl)pyridine-3-carboxamide]", "values": [{"measurement": "EC30", "result": "+++ (“+++” means <3 uM)"}]}
{"smiles": "Cc1cc(C)c(Oc2nc(-c3ccnn3C(C)C)ccc2C(=O)NS(=O)(=O)c2cccc(N)n2)c(C)c1", "note": "[Compound 1317, N-[(6-amino-2-pyridyl)sulfonyl]-6-(2-isopropylpyrazol-3-yl)-2-(2,4,6-trimethylphenoxy)pyridine-3-carboxamide]", "values": [{"measurement": "EC30", "result": "+++ (“+++” means <3 uM)"}]}
{"smiles": "Cc1ccccc1Oc1nc(C(C)(C)C)ccc1C(=O)NS(=O)(=O)c1cccc(N)n1", "note": "[Compound 1318, N-[(6-amino-2-pyridyl)sulfonyl]-6-tert-butyl-2-(2-methylphenoxy)pyridine-3-carboxamide]", "values": [{"measurement": "EC30", "result": "+++ (“+++” means <3 uM)"}]}
{"smiles": "CC(C)COc1cc(F)cc(-c2ccc(C(=O)NS(=O)(=O)c3cccc(N)n3)c(N3CCC(c4ccccc4)C3C)n2)c1", "note": "(stereo not drawn) [Compound 1319, N-[(6-amino-2-pyridyl)sulfonyl]-6-(3-fluoro-5-isobutoxy-phenyl)-2-(2-methyl-3-phenyl-pyrrolidin-1-yl)pyridine-3-carboxamide]", "values": [{"measurement": "EC30", "result": "+++ (“+++” means <3 uM)"}]}
{"smiles": "COc1ccc(C)cc1-c1ccc(C(=O)NS(=O)(=O)c2cccc(N)n2)c(Oc2c(C)cc(C)cc2C)n1", "note": "[Compound 1320, N-[(6-amino-2-pyridyl)sulfonyl]-6-(2-methoxy-5-methyl-phenyl)-2-(2,4,6-trimethylphenoxy)pyridine-3-carboxamide]", "values": [{"measurement": "EC30", "result": "+++ (“+++” means <3 uM)"}]}
{"smiles": "Cc1cc(C)c(Oc2ncc(-c3ccccc3)cc2C(=O)NS(=O)(=O)c2cccc(N)c2)c(C)c1", "note": "[Compound 1321, N-(3-aminophenyl)sulfonyl-5-phenyl-2-(2,4,6-trimethylphenoxy)pyridine-3-carboxamide]", "values": [{"measurement": "EC30", "result": "++ (“++” means between 3 uM and 10 uM)"}]}
{"smiles": "CC(C)Oc1ccc(-c2ccc(C(=O)NS(=O)(=O)c3cccc(N)n3)c(N3CC[C@@H](C)C3)n2)cn1", "note": "[Compound 1322, N-[(6-amino-2-pyridyl)sulfonyl]-6-(6-isopropoxy-3-pyridyl)-2-[(3R)-3-methylpyrrolidin-1-yl]pyridine-3-carboxamide]", "values": [{"measurement": "EC30", "result": "++ (“++” means between 3 uM and 10 uM)"}]}
{"smiles": "CC(C)COc1cc(F)cc(-c2ccc(C(=O)NS(=O)(=O)c3cccc4[nH]ccc34)c(N3CCC(C)(C)CC3)n2)c1", "note": "[Compound 1323, 2-(4,4-dimethyl-1-piperidyl)-6-(3-fluoro-5-isobutoxy-phenyl)-N-(1H-indol-4-ylsulfonyl)pyridine-3-carboxamide]", "values": [{"measurement": "EC30", "result": "+ (“+” means greater than 10 uM)"}]}
{"smiles": "CC(C)COc1cc(F)cc(-c2ccc(C(=O)NS(=O)(=O)c3cccc(N)n3)c(OC3CCOCC3)n2)c1", "note": "[Compound 1324, N-[(6-amino-2-pyridyl)sulfonyl]-6-(3-fluoro-5-isobutoxy-phenyl)-2-tetrahydropyran-4-yloxy-pyridine-3-carboxamide]", "values": [{"measurement": "EC30", "result": "+++ (“+++” means <3 uM)"}]}
{"smiles": "Cc1cc(C)c(Oc2nc(-c3cc(F)cc(F)c3)ccc2C(=O)NS(=O)(=O)c2cccc(N)n2)c(C)c1", "note": "[Compound 1325, N-[(6-amino-2-pyridyl)sulfonyl]-6-(3,5-difluorophenyl)-2-(2,4,6-trimethylphenoxy)pyridine-3-carboxamide]", "values": [{"measurement": "EC30", "result": "+++ (“+++” means <3 uM)"}]}
{"smiles": "COc1cccc(OC)c1-c1ccc(C(=O)NS(=O)(=O)c2cccc(N)n2)c(Oc2c(C)cc(C)cc2C)n1", "note": "[Compound 1326, N-[(6-amino-2-pyridyl)sulfonyl]-6-(2,6-dimethoxyphenyl)-2-(2,4,6-trimethylphenoxy)pyridine-3-carboxamide]", "values": [{"measurement": "EC30", "result": "++ (“++” means between 3 uM and 10 uM)"}]}
{"smiles": "CC(C)Oc1ccc(-c2ccc(C(=O)NS(=O)(=O)c3cccc(N)n3)c(N3CCC(C)(C)C3C)n2)cn1", "note": "(stereo not drawn) [Compound 1327, N-[(6-amino-2-pyridyl)sulfonyl]-6-(6-isopropoxy-3-pyridyl)-2-(2,3,3-trimethylpyrrolidin-1-yl)pyridine-3-carboxamide]", "values": [{"measurement": "EC30", "result": "+++ (“+++” means <3 uM)"}]}
